In PubChem BioAssay (NCI):
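Interpolation was linear, between the two tested concentrations surrounding the appropriate level; five concentrations were tested over 48 hours in 96-well plates. GI50 = concentration required for 50% inhibition of growth. At the TGI there is no net growth.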

Tests used:
Experiment in all cases: NCI tumour cell line growth inhibition, 48 h
A498 renal = test system: A498 renal
A549 NSCLC = test system: A549 NSCLC
HL-60(TB) leukemia = test system: HL-60(TB) leukemia
HT29 colon = test system: HT29 colon
NCI-H460 lung = test system: NCI-H460 lung
SK-MEL-2 melanoma = test system: SK-MEL-2 melanoma
SNB-75 CNS = test system: SNB-75 CNS

Row | Compound | GI50 (A498 renal) [µM] | TGI (A498 renal) [µM] | GI50 (A549 NSCLC) [µM] | TGI (A549 NSCLC) [µM] | GI50 (HL-60(TB) leukemia) [µM] | TGI (HL-60(TB) leukemia) [µM] | GI50 (HT29 colon) [µM] | TGI (HT29 colon) [µM] | GI50 (NCI-H460 lung) [µM] | TGI (NCI-H460 lung) [µM] | GI50 (SK-MEL-2 melanoma) [µM] | TGI (SK-MEL-2 melanoma) [µM] | GI50 (SNB-75 CNS) [µM] | TGI (SNB-75 CNS) [µM]
1 | CCCCCc1ccc(S(=O)(=O)Nc2cc(-c3csc(NC(C)=O)n3)ccc2N2CCN(C)CC2)cc1 | 6.23 | 11.3 | 5.11 | 11.8 | 1.37 | 6.09 | 1.99 | 8.29 | 4.77 | 9.9 | 5.76 | 12.6 | 3.67 | 7.98
2 | O=C(NCc1ccc(S(=O)(=O)c2cc(F)cc(F)c2)cc1)c1ccc2nccn2c1 | > 28.4 | > 86.8 | 9.59 | > 100 | > 40.2 | > 100 | 0.0885 | > 100 | 0.514 | > 100 | 20.1 | > 74.9 | 15.3 | 45.8
3 | CCN(CC)c1cc2oc3cc(N)cc(=N)c-3nc2cc1C | 16.3 | 74.7 | 3.63 | 18.3 |  |  | 3.49 | 15.6 | 3.41 | 17 | 2.01 | 4.69 | 2.84 | 13.4
4 | O=C(Nc1ccc(Cl)c(Cl)c1)Nc1ccccc1O | 12.2 | 27.2 | 6.23 | 22.5 | 3.7 | 36.2 | 18.5 | 36.1 | 4.03 | 16.1 | 5.51 | 17 | 13.7 | 50.5
5 | O=C1C(Cl)=C(Nc2ccccc2O)C(=O)N1Cc1ccccc1 | 18.4 | 40.6 | 20.3 | 46 |  |  |  |  | 21 | 42.5 | 30.9 | 96 |  | 
6 | COc1ccc2c(c1)C(C)Cc1c(ncnc1-n1cnc3cc(C)ccc31)N2C (stereo not given) | 0.0255 | 0.0889 | 0.254 | 12.6 | 0.0956 | 0.433 | 0.174 | 0.611 | 0.128 | 10.3 | 0.187 | 13.4 | 0.0529 | 19.9
7 | CO/N=C(/C)c1cccc(Nc2cc(-c3ccccc3)nc3ccc(OC)cc23)c1 |  |  | 23.1 | 53.9 |  |  | 34.1 | > 100 | 7.07 | > 100 | 50.3 | > 100 | 42.9 | > 100
8 | N#Cc1ccc(OC(=O)Nc2ccc(Cl)c(Cl)c2)cc1 | 1.44 | 6.92 | 3.43 | > 100 | 5.7 | 30.9 | 3.35 | 28.6 | 2.87 | 9.34 | 4.13 | 18 | 2.78 | 20.6
9 | CC[C@@]1(O)C(=O)OCc2c1cc1n(c2=O)Cc2c-1nc1cc(F)c(C)c3c1c2[C@@H](N)CC3 | < 0.01 | 0.0221 | < 0.01 | 1.15 | < 0.01 |  | < 0.01 | > 100 | < 0.01 | > 33.7 | 0.138 | 1.4 | < 0.0137 | 0.101
10 | Cc1nn(C(=O)c2ccc(Cl)cc2)c2c1C(c1ccc(O)cc1)SC(N)=N2 (stereo not given) |  |  |  | > 10 |  | > 10 |  | > 10 |  | > 10 |  | > 10 |  | > 10
11 | Cc1ncc([N+](=O)[O-])n1CCNS(=O)(=O)CCCn1ncnc1[N+](=O)[O-] |  | > 100 |  | > 100 |  | > 100 |  | > 100 |  | > 100 |  | > 100 |  | > 100
12 | O=c1oc2ccc(Br)cc2c(=O)n1-c1ccc(F)cc1F | 1.16 | 3.02 | 3.17 | > 100 |  |  | 3.45 | 27.8 | 2.79 | 25.6 | 2.12 | 6.13 | 1.02 | 3.98
13 | O=[N+]([O-])c1ccc(CSCc2ccc(Cl)cc2)cc1 |  | > 100 |  | > 100 |  | > 100 |  | > 100 |  | > 100 |  | > 100 |  | > 100
14 | Cn1cc(-c2ccc(-c3cncc(Cl)c3N3CCC4(CCNC4=O)CC3)cc2)cn1 | 14.1 | > 100 | 29 | > 100 | 20.4 | 55.5 | 16.9 | > 100 | 69.1 | > 100 | 24.7 | > 100 | 34.8 | > 100
15 | O=C(CSC(c1ccccc1)c1ccccc1)N/N=C/c1ccco1 | 1.89 | 5.37 | 1.54 | 5.28 |  |  | 18.7 | 48.3 | 2.16 | 12.8 | 1.4 | 3.76 | 17.1 | 58.1
16 | COC(=O)c1cc(/C=C/c2ccc(S(N)(=O)=O)cc2)ccc1O | 0.0161 | 20.2 | 29.6 | > 100 | > 100 | > 100 | 64.5 | > 100 | 27.5 | 66.4 | 66.8 | > 100 | 57 | > 100
17 | Cc1cc(C)n(-c2nnc3n2N=C(c2ccc(-c4ccccc4)cc2)CS3)n1 | 2.03 | 7.09 | 3.83 | > 100 |  |  | 3.11 | 12.1 | 3.35 | > 100 | 2.58 | 7.17 | 3.24 | 54.8
18 | CC(C)C1=C2CCC3(C)C(CCC4C5C6OCC5(CCC6(C)C)CCC43C)C2(C)CC1 (stereo not given) |  | 36.7 |  | 43.8 |  | 27.9 |  | 37 |  | 31.8 |  | 81.7 |  | 
19 | O=C(N/N=C/c1ccc([N+](=O)[O-])o1)c1ccc(O)cc1 |  |  | 4.71 | > 100 | 2.48 | 6.9 | 5.88 | > 100 | 3.37 | > 100 | 11.3 | > 100 | 17.4 | 83.2
